Measurements published in patent US20150273086A1, “HYPERPOLARIZED 2-OXOGLUTARATE AS METABOLIC AGENT IN MR” (BRACCO IMAGING S.P.A., priority 2012, published 2015).

Legend:
PC-3 cells [1] = assay: Trypan blue staining, total cell number and viability of treated PC-3 cells; format: cell-based, human; settings: MS-275 0.5 μM 48 hours, Resveratrol 50 μM 48 hours
Method: (§1) PC-3 cells: MS-275 0.5 μM, for 48 hours; Resveratrol 50 μM for 48 hours. The treatment protocols were evaluated with a standard cellular method, trypan blue staining which provide the total cell numbers and cell viability.

PC-3 cells [2] = assay: UV assay of 2-oxoglutarate conversion in treated PC-3 cells; format: cell-based, human; settings: MS-275 0.5 μM 48 hours, Resveratrol 50 μM 48 hours, FIG. 9
Method: (§2) The UV assay and conditions used in example 4 were applied. Prior to harvesting the cells have been treated with MS-275, resveratrol, etoposide, or Sorafenib, as follows:
PC-3 cells: MS-275 0.5 μM, for 48 hours; Resveratrol 50 μM for 48 hours.
(§3) Uptake and conversion of 2-oxoglutarate were measured as described in example 4.

[3] = Trypan blue staining, total cell number and viability of treated Morris7777 cells; format: cell-based, rat; settings: rat, Etoposide 15 μM 24 hours, Sorafenib 0.5 μM 48 hours
Method: (§4) Morris7777 cells: Etoposide 15 μM, for 24 hours; Sorafenib 0.5 μM for 48 hours.
(§5) The treatment protocols were evaluated with a standard cellular method, trypan blue staining which provide the total cell numbers and cell viability.

Morris7777 cells [4] = assay: as above; format: cell-based, rat; settings: Etoposide 15 μM 24 hours, Sorafenib 0.5 μM 48 hours
Method: as §4, §5

Morris7777 cells [5] = assay: UV assay of 2-oxoglutarate conversion in treated Morris7777 cells; format: cell-based, rat; settings: Etoposide 15 μM 24 hours, Sorafenib 0.5 μM 48 hours, FIG. 10
Method: as §2, §4, §3

[6] = Hydrolysis of hyperpolarized 2-oxoglutaric-(1)-ethyl ester upon dissolution (13C-NMR); format: physicochemical; settings: after 15 s; dissolved in D2O with added NaOH, pH 11
Method: 2-oxoglutaric-(1)-ethyl ester (31 mg, 0.18 mmol) was added to an Eppendorf tube and mixed with 0.7 mg (0.45 μmol) of the carboxylic acid form of the finland radical (tris{8-carboxyl-2,2,6,6-tetramethyl-benzo(1,2-d:4,5-dS)bis(1,3)dithiole-4-yl}methyl, carboxylic acid form). […]. The ethyl ester formed a glass upon rapid freezing. […] […]. The sample was hyperpolarized for 90 min.
The sample was dissolved in 6 ml D2O with added NaOH (35 μl of 10 M). […] The ester was hydrolyzed up to at least 95%, after 15 s. The 2-oxoglutaric-(1)-ethyl ester was easily hydrolyzed to 2-oxoglutarate during the time of the experiment.

aspartate transaminase = assay: Aspartate transaminase conversion of hyperpolarized 1-13C-2-oxoglutarate to 1-13C-glutamate with or without co-substrate
Method: The sample was dissolved in 5 ml phosphate buffer (40 mM, pH 7.3) with addition of NaOH (8 μl, 12 M). The pH after dissolution was 7.3. From this hyperpolarized solution aliquots of 300 μl were taken and added one at a time to 5 mm NMR tubes (1-3) kept at 37° C. containing the following:
Tube 1: 2.5 μl (3.2 U) aspartate transaminase+100 μl (120 mM) glutamate+200 μl 40 mM phosphate buffer pH.7.3.
Tube 2: 2.5 μl (3.2 U) aspartate transaminase+100 μl (120 mM) aspartate+200 μl 40 mM phosphate buffer pH.7.3.
Tube 3: 2.5 μl (3.2 U) aspartate transaminase+300 μl (40 mM) phosphate buffer pH.7.3.
A low pulse angle experiment was performed (15 degree pulses every 0.5 s for 12 s). Following the end of the experiment the procedure was repeated for tube 2 and tube 3.

[7] = system: PC-3, HEP-G2, PNT-1A and THLE-3 cells; assay: UV assay of uptake and conversion of 2-oxoglutarate to glutamate in cancerous and normal cells; format: cell-based, human; settings: 20 mM 2-oxoglutarate, 20 mM aspartate as co-substrate, 30 minutes at 37° C., FIG. 2
Method: A combination of cellular uptake of 2-oxoglutarate and conversion of 2-oxoglutarate to glutamate was measured using a UV assay. Following incubation of the cells with 2-oxoglutarate for 30 minutes at 37° C. the cells were disrupted and a perchloric acid extract was made to precipitate the enzymes, whereafter the concentration of the formed product, glutamate, was measured.
The following UV assay for measuring glutamate production was applied.
The assay consists of two parts, as shown in the reaction scheme below. In the first part, glutamate is generated by incubating 0.5 million (0.5*10^6) viable cells with 20 mM 2-oxoglutarate and 20 mM aspartate for 30 minutes at 37° C. In the second part the glutamate concentration is measured using commercially available GDH (glutamate dehydrogenase) enzyme to generate 2-oxoglutarate and NADH. The latter is an unfavorable reaction and the reaction is therefore forced in this direction by trapping of the produced NADH in the INT (Iodonitrotetrazolium) reaction.
Reaction scheme for the assay determining glutamate concentration from cells incubated with 2-oxoglutarate. GDHcell refer to the cellular presence of glutamate dehydrogenase which will convert 2-oxoglutarate to glutamate when 2-oxoglutarate is incubated with whole cells in the first part of the assay. […]

[8] = system: EL-4 xenograft mouse lymphoma model; assay: In vivo DNP-MR glutamate signal pre versus post etoposide treatment; set-up: species or system C57BL/6 mouse; settings: single dose Etoposide 2 mg/mouse i.p.; average over 4 mice, FIG. 8
Method: EL-4 xenograft mouse lymphoma model has been selected as test system to verify the ability of detecting tumour response to a DNA targeting therapy. […].
Five million EL-4 cells were suspended in 0.1 mL Roswell Park Memorial Institute (RPMI-1640) medium and subcutaneously injected in the flank of 7 weeks old female C57BL/6 mouse.
DNP experiment has been performed 9-10 days after cells inoculation pre Etoposide treatment and 10-11 days after cells inoculation post single dose Etoposide treatment (a dose of 2 mg/mouse has been i.p. administered by injection of 300 μL of Eposin 20 mg/mL diluted 1:3 in saline solution). DNP sample has been prepared as describes in example 6.

[9] = system: prostate cancer cells (PC-3); settings: 3.5 mM substrate, aspartate added, 14.1 T, 37° C., FIG. 3
Method: 10 million prostate cancer cells (PC-3) were harvested and redissolved in 500 μl phosphate buffer (PBS).
The acquisition was started just before injection of the hyperpolarized substrate.

[10] = system: liver cancer cells (Morris7777); settings: 3.5 mM total substrate, aspartate added, FIG. 13
Method: 10 million liver cancer cells (Morris7777), were harvested and redissolved in 500 μl phosphate buffer (PBS).
The acquisition was started just before injection of the hyperpolarized substrates.

[11] = Trypan blue staining, total cell number and viability of treated PC-3 cells; format: cell-based, human; settings: human, MS-275 0.5 μM 48 hours, Resveratrol 50 μM 48 hours
Method: as §1

## Nc1ccccc1NC(=O)c1ccc(CNC(=O)OCc2cccnc2)cc1 [MS-275]
PC-3 cells [1]
  Cell number: 4.5 million
PC-3 cells [2]
  conversion of 2-oxoglutarate to glutamate in comparison to untreated cells (control): no change

## CNC(=O)c1cc(Oc2ccc(NC(=O)Nc3ccc(Cl)c(C(F)(F)F)c3)cc2)ccn1 [Sorafenib, sorafenib]
[3]
  viability: > 89%
Morris7777 cells [4]
  Cell number: 8 million
Morris7777 cells [5]
  conversion of 2-oxoglutarate to glutamate in comparison to untreated cells (control): no change

## CCOC(=O)C(=O)CCC(=O)O [2-oxoglutaric-(1)-ethyl ester]
[6]
  ester hydrolyzed to 2-oxoglutarate: at least 95%

## O=C(O)CCC(=O)C(=O)O [2-oxoglutarate]
Aspartate transaminase; no co-substrate (tube 3)
  formation of glutamate product by aspartate transaminase: no product can be formed
Aspartate transaminase; tubes 1 and 2, 37° C., FIG. 1
  conversion to glutamate by aspartate transaminase, aspartate versus glutamate as co-substrate: the two amino acids are almost equally effective
[7]
  conversion of 2-oxoglutarate in glutamate: higher in carcinoma cells than in normal cells

## COc1cc([C@@H]2c3cc4c(cc3[C@@H](O[C@@H]3O[C@@H]5CO[C@@H](C)O[C@H]5[C@H](O)[C@H]3O)[C@H]3COC(=O)[C@H]23)OCO4)cc(OC)c1O [Etoposide, etoposide]
[3]
  viability: < 85%
Morris7777 cells [4]
  Cell number: 5.5 million
[8]
  signal of hyperpolarized 1-13C-glutamate post therapy compared to pre therapy: increases two times
Morris7777 cells [5]
  conversion of 2-oxoglutarate to glutamate in comparison to untreated cells (control): higher

## 1-^13C-2-oxoglutaric acid [hyperpolarized 1-^13C-2-oxoglutarate]
[9]
  uptake and conversion into hyperpolarized 1-13C-glutamate: taken up by PC-3 cells and converted into hyperpolarized 1-^13C-glutamate
[10]
  produced hyperpolarized 1-13C-glutamate signal relative to 1-13C-lactate signal from hyperpolarized 1-13C-pyruvate: more than 2 times

## Oc1ccc(C=Cc2cc(O)cc(O)c2)cc1 [Resveratrol]
PC-3 cells [1]
  Cell number: 1.7 million
[11]
  viability at 48 h: > 94%
PC-3 cells [2]
  conversion of 2-oxoglutarate to glutamate in comparison to untreated cells (control): higher
